According to patent US4939256A, “Novel platinum complex, antineoplastic agent containing the same, and intermediate therefor” (Kanebo Ltd., priority 1988, dated 1990):

Tests used:
Leukemia P388 = experiment: Experiment 1: Test of antitumor activity (increase in life span of tumor-bearing mice); assay type: in vivo, BDF1 male mice; conditions: intraperitoneal, P388 in BDF1 mice; for Increase in life span (ILS %): observed until 30th day
Description: (a) Animals: BDF1 male mice (6 week age, weighing 22 to 25 g, 4 animals per each group)
(b) Tumor cells: Leukemia P388
Tumor cells (1×10^6 per mouse) were intraperitoneally inoculated into mice. After 24 hours, a solution of each test compound in physiological saline solution was intraperitoneally administered to the mice. In control mice, only physiological saline solution was intraperitoneally administered.
Survival days of the mice was observed until 30th day after the inoculation of tumor cells. Mean survival days (X) in the mice administered with test compound and mean survival days (Y) in the control mice were measured, and the increase in life span (ILS %) was calculated by the following equation: [formula]

[1] = system: Cisplatin-resistant L1210 cells (L1210/DDP) and L1210 cells; experiment: Experiment 2: Effects on cisplatin-resistant tumor cells (growth inhibition, resistance index); assay type: cell-based; conditions: L1210/DDP versus L1210, from IC50 after 48 hours; for Resistance index, maximum: maximum of 2 to 4 tests; for Resistance index, Mean: mean of 2 to 4 tests; for Resistance index, minimum: minimum of 2 to 4 tests
Description: 2. Cisplatin-resistant L1210 cells (hereinafter, referred to as L1210/DDP), which is available from Cancer Chemotherapy Center, Japanese Foundation for Cancer Research
RPMI-1640 medium containing 10% (v/v) fetal bovine serum, which was prepared as follows:
RPMI-1640 (manufactured by GIBCO) (10.4 g), sodium hydrogen carbonate (1.3 g), streptomycin sulfate ([…]), penicillin G potassium ([…]) and a 1% aqueous solution of β-mercaptoethanol (40 μl) were dissolved in distilled water (one liter). To this mixture (90 parts by volume) was added fetal bovine serum (manufactured by GIBCO) (10 parts by volume) to give RPMI-1640 medium containing 10% (v/v) fetal bovine serum (hereinafter, referred to as "serum-containing RPMI-1640 medium").
L1210 cells or L1210/DDP cells were added to the serum-containing RPMI-1640 medium to prepare a cell suspension (3×10^5 cells/ml). The cell suspension (each 1 ml) was seeded onto a microplate (Falcon 3047, manufactured by Falcon) and cultivated in air containing 5% CO2 gas at 37° C. (one group, 3 wells). After cultivating for 24 hours, a solution of each test compound (1 ml) (which was prepared by dissolving each test compound in the serum-containing RPMI-1640 medium in various concentrations) was added to the medium, and the mixture was cultivated under the same conditions for 48 hours. After the cultivation, the number of viable cells was counted by Trypan Blue exclusion test method, and the mean number of viable cells in each group was calculated. Besides, in the control group, the above was repeated by using the serum-containing RPMI-1640 medium instead of the solution of test compound, and the mean number of viable cells in the control group was calculated likewise. From the mean number of viable cells in various concentration of test compound and the mean number of viable cells in the control group, the concentration required for 50% inhibition of growth (IC50) was calculated by probit method. Then, the resistance index of test compound was calculated by the following equation: [formula]
The above test was repeated for 2 to 4 times, and the mean resistance index was obtained.

BDF1 male mice = experiment: Experiment 4: Acute toxicity (LD50); assay type: in vivo; conditions: intraperitoneal, until 14th day, Weil method
Description: (§1) (a) Animal: BDF1 male mice (6 week age, weighing 22-25 g, 5 animals per each group)
Each test compound was dissolved or suspended in a physiological saline solution, and the solution or suspension (0.1 ml/10 g body weight) was intraperitoneally administered to mice. The number of mice that died was counted until 14th day after administration of test compound, and the acute toxicity (LD50) was calculated by Weil method.

kidney = experiment: Experiment 3: Side effect on kidney (blood urea nitrogen value); assay type: in vivo, BDF1 male mice; conditions: intraperitoneal, 4th day after administration, versus control mice
Description: It was studied in the blood urea nitrogen value (BUN value) as an index.
as §1
Each test compound was dissolved in a physiological saline solution, and the solution (0.1 ml/10 g body weight) was intraperitoneally administered. In the control mice, only the physiological saline solution (0.1 ml/10 g body weight) was intraperitoneally administered. On the 4th day after the administration, the test compound-administered mice and the control mice were bleeded from the femoral artery, and the collected blood was centrifuged at 3,000 r.p.m. at 4° C. for 15 minutes to give a test serum. BUN value in the test serum was measured by a urease indophenol method using a kit for measuring urea nitrogen (Urea NB-Test Wako, manufactured by Wako Pure Chemical Industries, Ltd.). That is, the above test serum (20 μl) was taken in a test tube and thereto was added color reagent A [a mixture of a urease solution (one part by volume) and phosphate buffer (pH 7.0, 20 parts by volume), 2.0 ml], and the mixture was mixed well and incubated at 37° C. for 15 minutes. […]
The absorbance of the standard solution and test solution was measured at 570 nm with a spectrophotometer with reference to the blank solution as a control, and BUN value in the test serum was calculated by the following equation: [formula] […]

[2] = prior art, clinically used; cited from earlier work

Compound | Increase in life span (ILS %) (Leukemia P388; 25 mg/kg) | Increase in life span (ILS %) (Leukemia P388; 50 mg/kg) | Increase in life span (ILS %) (Leukemia P388; 100 mg/kg) | dose showing maximum increase in life span in Experiment 1 (Leukemia P388) | further results
a mixture of α-glycolato-(3RS)-3-aminopyrrolidine platinum (II) (Isomer a-1) and β-glycolato-(3RS)-3-aminopyrrolidine platinum (II) (Isomer a-2) [Platinum complex A-3] | 111% | 170% | 26% | 50 mg/kg | Resistance index, maximum ([1]; 2880 min): 4.6; Resistance index, Mean ([1]; 2880 min): 4.6; Resistance index, minimum ([1]; 2880 min): 4.6; LD50 (BDF1 male mice; 20160 min): 107.0 mg/kg
N.N.[Cl][Pt][Cl] [Cisplatin, cisdiamminedichloroplatinum (II), reference compound] |  |  |  | 10 mg/kg | Rate of change of BUN value (%) (kidney; 10 mg/kg): +106%; Rate of change of BUN value (%) (kidney; 15 mg/kg): +128%; antineoplastic activity, in words [2]: excellent antineoplastic activity; Increase in life span (ILS %) (Leukemia P388; 5 mg/kg): 108%; Increase in life span (ILS %) (Leukemia P388; 10 mg/kg): 167%; Increase in life span (ILS %) (Leukemia P388; 20 mg/kg): -11%
a mixture of α-glycolato-(3RS)-3-aminopyrrolidine platinum (II) (Isomer a-1) and β-glycolato-(3RS)-3-aminopyrrolidine platinum (II) (Isomer a-2) [Platinum complex A-1] | 74% | 167% | -43% | 50 mg/kg | 
a mixture of α-glycolato-(3RS)-3-aminopiperidine platinum (II) (Isomer b-1) and β-glycolato-(3RS)-3-aminopiperidine platinum (II) (Isomer b-2) [Platinum complex B-1] | 131% | 174% | -45% | 50 mg/kg | Resistance index, maximum [1]: 5.4; Resistance index, Mean [1]: 4.3; Resistance index, minimum [1]: 3.2; LD50 (BDF1 male mice): 57.0 mg/kg
O=C1C[O][Pt]2([NH]C3CC[N]2C3)[O]1 (racemic) [Platinum complex A-2, α-glycolato-(3RS)-3-aminopyrrolidine platinum (II)] | 108% | 172% | 115% | 50 mg/kg | 
